Experimental data as given in paper PMC12700558, “Aggregation shifts amyloid-β peptides from synaptogenic to synaptotoxic” (The Journal of Clinical Investigation, 2025).
“And” between values parts separate entries of the source, which are not always exact repeats. Equal entries are not always repeated. “Also recorded” adds a separate entry of the source.

Assays:
[1] = test system: human neurons cocultured with mouse glia (entire glia/neuron coculture)
Experimental: The MTT assay employs yellow tetrazolium dye that is reduced to a purple formazan crystal by viable cells with active metabolism ([21]). Because it measures metabolic activity in all cells, this assay serves as a broad cytotoxicity read out for the entire glia/neuron coculture system. The amount of formazan produced is then measured because it is directly proportional to the number of viable cells ([21]) (Figure 1B and Supplemental Figure 1A). The nuclear localization TdTomato assay, conversely, enables monitoring of cellular stress by tracking the localization of fluorescent TdTomato fused to a nuclear localization signal. Under healthy conditions, the nuclear localization signal directs the NLS-TdTomato to the nucleus. When toxicity in a cell causes a reduction in ATP levels, NLS-TdTomato leaks out of the nucleus into the cytoplasm, which we scored as an index of toxicity (Figure 1, C and D, and Supplemental Figure 1, B–D). Because the reporter is expressed only in neurons, this assay specifically assesses neurotoxicity within the coculture. We developed this assay because it can be performed on live cells and reflects decreases in ATP levels in these cells. The NLS-TdTomato assay was validated by treating cultures with 5% DMSO and 200 μM hydrogen peroxide, 2 well-established neurotoxins. […]

[2] = Native PAGE and immunoblotting of the aggregation state of Aβ peptides; type: physicochemical; conditions: stock solutions incubated at 37°C for 60 or 90 minutes, native PAGE, immunoblot 4G8 / Abcam 126892
Experimental: To assess the aggregation state of Aβ peptides in stock solutions, we performed native polyacrylamide gel electrophoresis (PAGE) followed by immunoblotting. Stock solutions of Aβ peptides were incubated at 37°C for 1.5 and/or 1 hours to promote aggregate formation. After incubation, samples were diluted 1:2 with native PAGE sample buffer to maintain nondenaturing conditions. The samples were loaded onto 4%–15% gradient polyacrylamide Criterion gels (Bio-Rad), which allow for the separation of proteins across a wide range of molecular weights under native conditions. Electrophoresis was conducted using Tris-Glycine buffer at 4°C for 3 hours to preserve the native structure of the peptide aggregates during separation. A constant voltage appropriate for native PAGE was applied throughout the run ([49]). Following electrophoresis, proteins were transferred onto Nitrocellulose (0.45 μm) membranes using a semidry transfer apparatus optimized for proteins of mixed molecular weights. The transfer was performed according to the manufacturer’s instructions, ensuring efficient transfer of both low and high molecular weight species. Membranes were blocked with 5% BSA (GeminiBio) in Tris-buffered saline with 0.1% Tween-20 (TBST) at room temperature for 1 hour to prevent nonspecific antibody binding. […] Blots were imaged using the Odyssey Infrared Imager CLX and analyzed using Image Study 5.2.5. […]

[3] = test system: human neurons; experiment: GCaMP6m live imaging of Ca2+ signals (network activity); type: cell-based; set-up: Ca2+ imaging: Frequency / Ca2+ imaging: Amplitude: unit not given here; conditions: for Ca2+ imaging: Amplitude / Ca2+ imaging: Frequency / Ca2+ imaging: Synchronicity: single biological replicates (batches), n=3, listed as Ab42 arctic mutation
Experimental: To evaluate the effects of Aβ peptide treatments on neuronal network activity, live calcium imaging was performed using human neurons expressing the genetically encoded calcium indicator GCaMP. At DIV6, human neurons were infected with a lentiviral vector, prepared as described previously at Virus generation, carrying a plasmid encoding GCaMP6m under the control of the human Synapsin-1 promoter, ensuring neuron-specific expression. […] At DIV45, when the neurons had reached full maturation, synaptic activity was recorded. For potentiating synaptic transmission of human neurons, the cells were imaged with ambient 4 mM CaCl2 and 8 mM KCl equilibrated in a HEPES-based buffer (140 mM NaCl, 10 mM HEPES, 20 mM glucose, 1 mM MgCl2). […] Neuronal activity was captured in 2-minute videos at a frame rate of 10 frames/second, allowing for the detection of spontaneous calcium transients indicative of neuronal firing. Following acquisition, the videos were analyzed using MATLAB software (MathWorks). Regions of interest (ROIs) corresponding to 10–20 neurons were selected, and fluorescence intensity changes over time were extracted for each ROI. Analyses focused on quantifying the frequency, amplitude, and synchronicity of calcium signal peaks across the neuronal network. Signal peaks were identified using a peak detection algorithm, and synchronicity was assessed through cross-correlation analyses between neuronal pairs or by calculating network synchrony measures ([26]).

[4] = concentrations that proved synaptotoxic, DIV45

Question: For “-.DAEFRHDSGYEVHHQKLVFFAGDVGSNKGAIIGLMVGGVVI.A [Aβ42^arctic]”, which “Concentration at which neurotoxic, MTT assay” value [1] is on record?
Answer: greater than or equal to 0.025 μM

Question: What about the “Aggregation state in native gel analyses (in words)” value [2] of the same substance?
Answer: completely aggregated even at lower concentrations; also recorded: quantitatively aggregated

Question: And the “Neuronal network activity (in words)” value ([3]; any concentration, chronic treatment, DIV45)?
Answer: did not enhance neuronal network activity at any concentration

Question: What about the “Spike frequency and amplitude (in words)” value [3, 4] of the same substance?
Answer: pronounced fall

Question: What about the “Synchrony (in words)” value [3, 4] of the same substance?
Answer: near-complete breakdown

Question: What about the “Ca2+ imaging: Amplitude” value ([3]; peptide 0.1 uM) of the same substance?
Answer: 0.4784 and 0.3202 and 0.4832

Question: What about the “Ca2+ imaging: Frequency” value ([3]; peptide 0.1 uM) of the same substance?
Answer: 10.7529 and 5.405 and 6.996

Question: And the “Ca2+ imaging: Synchronicity” value ([3]; peptide 0.1 uM)?
Answer: 0.2834 and 0.2877 and 0.3503

Question: And the “Ca2+ imaging: Amplitude” value ([3]; peptide 0.2 uM)?
Answer: 0.3279 and 0.286 and 0.3267

Question: And the “Ca2+ imaging: Frequency” value ([3]; peptide 0.2 uM)?
Answer: 0.6879 and 0.8917 and 1.347

Question: What about the “Ca2+ imaging: Synchronicity” value ([3]; peptide 0.2 uM) of the same substance?
Answer: 0.2149 and 0.1382 and 0.2492
